Results taken from the CheMixHub viscosity set.
Values joined by “and” are separate entries in the source; they are usually repeats but may differ in a detail not shown here. Equal entries are not always repeated. ± gives the uncertainty stated by the source.

SMILES: CCCC[n+]1ccn(C)c1.N#C[S-]
- viscosity (298.15 K, 100 kPa): 57.4 ± 1.8 mPa·s and 62.81 ± 3.2 mPa·s
- viscosity (308.15 K, 100 kPa): 37.36 ± 2 mPa·s and 40.56 ± 2.1 mPa·s
- viscosity (318.15 K, 100 kPa): 25.8 ± 1.4 mPa·s

SMILES: Cc1cccc([N+](=O)[O-])c1
- viscosity (308.15 K, 101.33 kPa): 1.692 ± 0.01 mPa·s

SMILES: CCOC(=O)c1ccccc1
- viscosity (293.15 K, 101.33 kPa): 2.013 ± 0.052 mPa·s and 2.21 ± 0.02 mPa·s
- viscosity (298.15 K, 101.33 kPa): 1.954 ± 0.025 mPa·s and 1.936 ± 0.023 mPa·s
- viscosity (303.15 K, 101.33 kPa): 1.597 ± 0.041 mPa·s and 1.77 ± 0.022 mPa·s and 1.811 ± 0.016 mPa·s
- viscosity (308 K, 101.3 kPa): 1.593 ± 0.16 mPa·s
- viscosity (308.15 K, 101.33 kPa): 1.61 ± 0.021 mPa·s and 1.591 ± 0.019 mPa·s
- viscosity (313 K, 101.3 kPa): 1.446 ± 0.14 mPa·s
- viscosity (313.15 K, 101 kPa): 1.446 ± 0.035 mPa·s and 1.463 ± 0.031 mPa·s and 1.461 ± 0.022 mPa·s
- viscosity (313.15 K, 101.33 kPa): 1.284 ± 0.033 mPa·s and 1.453 ± 0.018 mPa·s
- viscosity (318 K, 101.3 kPa): 1.339 ± 0.13 mPa·s
- viscosity (318.15 K, 101 kPa): 1.339 ± 0.033 mPa·s and 1.35 ± 0.042 mPa·s
- viscosity (318.15 K, 101.33 kPa): 1.332 ± 0.016 mPa·s
- viscosity (323 K, 101.3 kPa): 1.254 ± 0.13 mPa·s
- viscosity (323.15 K, 101 kPa): 1.254 ± 0.031 mPa·s
- viscosity (323.15 K, 101.33 kPa): 1.058 ± 0.027 mPa·s

SMILES: OCC(F)(F)C(F)F
- viscosity (298.15 K, 100 kPa): 4.861 ± 0.1 mPa·s
- viscosity (323.15 K, 100 kPa): 2.156 ± 0.046 mPa·s

SMILES: N#CCc1ccccc1
- viscosity (298.15 K, 101 kPa): 1.868 ± 0.045 mPa·s

SMILES: C=C(C)C(=O)OCC
- viscosity (298.15 K, 101 kPa): 0.6412 ± 0.014 mPa·s
- viscosity (303.15 K, 101 kPa): 0.5825 ± 0.013 mPa·s
- viscosity (308.15 K, 101 kPa): 0.5323 ± 0.011 mPa·s
- viscosity (313.15 K, 101 kPa): 0.4915 ± 0.01 mPa·s
- viscosity (318.15 K, 101 kPa): 0.4586 ± 0.0098 mPa·s

SMILES: Cc1ccccc1[N+](=O)[O-]
- viscosity (298.15 K, 101 kPa): 2.1 ± 0.021 mPa·s
- viscosity (298.15 K, 101.33 kPa): 2.089 ± 0.021 mPa·s
- viscosity (308.15 K, 101.33 kPa): 1.727 ± 0.011 mPa·s
- viscosity (323.15 K, 101.33 kPa): 1.348 ± 0.013 mPa·s

SMILES: CCOC(=O)[C@@H](O)[C@H](O)C(=O)OCC
- viscosity (293.15 K, 101 kPa): 221.3 ± 4.6 mPa·s
- viscosity (298.15 K, 101 kPa): 137.7 ± 2 mPa·s and 137.7 ± 2.1 mPa·s
- viscosity (303.15 K, 101 kPa): 90.07 ± 0.93 mPa·s and 90.07 ± 1 mPa·s
- viscosity (308.15 K, 101 kPa): 61.58 ± 0.47 mPa·s and 61.58 ± 0.56 mPa·s
- viscosity (313.15 K, 101 kPa): 43.68 ± 0.34 mPa·s and 43.68 ± 0.4 mPa·s
- viscosity (318.15 K, 101 kPa): 32.1 ± 0.25 mPa·s and 32.1 ± 0.29 mPa·s
- viscosity (323.15 K, 101 kPa): 24.37 ± 0.19 mPa·s and 24.37 ± 0.22 mPa·s

SMILES: CCCCCN
- viscosity (293.15 K, 101.33 kPa): 0.656 ± 0.004 mPa·s
- viscosity (298.15 K, 101.33 kPa): 0.609 ± 0.004 mPa·s
- viscosity (303.15 K, 101 kPa): 0.5809 ± 0.005 mPa·s
- viscosity (303.15 K, 101.33 kPa): 0.563 ± 0.003 mPa·s
- viscosity (308.15 K, 101.33 kPa): 0.523 ± 0.003 mPa·s
- viscosity (313.15 K, 101.33 kPa): 0.484 ± 0.003 mPa·s
- viscosity (318.15 K, 101.33 kPa): 0.457 ± 0.002 mPa·s

SMILES: CCCCC1CCCCC1
- viscosity (323.15 K, 100 kPa): 0.835 ± 0.01 mPa·s

SMILES: CCCCCCCCn1cc[n+](C)c1.O=S(=O)([N-]S(=O)(=O)C(F)(F)F)C(F)(F)F
- viscosity (308.15 K, 100 kPa): 56.43 ± 2.3 mPa·s

SMILES: CCC(C)CO (stereo unspecified)
- viscosity (298.15 K, 101 kPa): 4.868 ± 0.045 mPa·s
- viscosity (303.15 K, 101.33 kPa): 3.594 ± 0.048 mPa·s
- viscosity (313.15 K, 101.33 kPa): 2.601 ± 0.035 mPa·s
- viscosity (323.15 K, 101.33 kPa): 1.936 ± 0.026 mPa·s

SMILES: CCn1cc[n+](C)c1.N#C[S-]
- viscosity (293.15 K, 101 kPa): 26.31 ± 0.54 mPa·s
- viscosity (298.15 K, 100 kPa): 23.06 ± 1.1 mPa·s
- viscosity (303.15 K, 100 kPa): 19.68 ± 0.93 mPa·s
- viscosity (303.15 K, 101 kPa): 19.03 ± 0.49 mPa·s
- viscosity (308.15 K, 100 kPa): 16.97 ± 0.8 mPa·s
- viscosity (313.15 K, 100 kPa): 14.54 ± 0.69 mPa·s (2×) and 16.97 ± 0.8 mPa·s
- viscosity (313.15 K, 101 kPa): 14.3 ± 0.46 mPa·s
- viscosity (318.15 K, 100 kPa): 12.98 ± 0.61 mPa·s (2×) and 14.54 ± 0.69 mPa·s
- viscosity (323.15 K, 100 kPa): 11.49 ± 0.54 mPa·s
- viscosity (323.15 K, 101 kPa): 11.1 ± 0.45 mPa·s

SMILES: CC(=O)[O-].CCCC[NH2+]CCO
- viscosity (293.15 K, 101 kPa): 1412 ± 70 mPa·s
- viscosity (298.15 K, 101 kPa): 921.1 ± 41 mPa·s
- viscosity (303.15 K, 101 kPa): 616.9 ± 24 mPa·s
- viscosity (308.15 K, 101 kPa): 423.3 ± 15 mPa·s
- viscosity (313.15 K, 101 kPa): 297 ± 9.3 mPa·s
- viscosity (318.15 K, 101 kPa): 212.7 ± 6 mPa·s
- viscosity (323.15 K, 101 kPa): 155.3 ± 4 mPa·s

SMILES: CC(C)O
- viscosity (293.15 K, 101.32 kPa): 2.29 ± 0.018 mPa·s
- viscosity (298.15 K, 101.3 kPa): 2.012 ± 0.049 mPa·s
- viscosity (298.15 K, 101.33 kPa): 1.936 ± 0.013 mPa·s
- viscosity (303 K, 101 kPa): 1.49 ± 0.14 mPa·s
- viscosity (303.15 K, 100 kPa): 1.73 ± 0.17 mPa·s
- viscosity (303.15 K, 101.33 kPa): 1.878 ± 0.019 mPa·s and 1.731 ± 0.011 mPa·s and 1.4 ± 0.024 mPa·s
- viscosity (308.15 K, 100 kPa): 1.579 ± 0.048 mPa·s and 1.49 ± 0.15 mPa·s
- viscosity (308.15 K, 101.3 kPa): 1.485 ± 0.037 mPa·s
- viscosity (308.15 K, 101.33 kPa): 1.494 ± 0.01 mPa·s
- viscosity (313 K, 101 kPa): 1.13 ± 0.11 mPa·s
- viscosity (313.15 K, 101 kPa): 1.319 ± 0.033 mPa·s and 1.281 ± 0.06 mPa·s and 1.4 ± 0.03 mPa·s
- viscosity (313.15 K, 101.3 kPa): 1.322 ± 0.011 mPa·s
- viscosity (313.15 K, 101.33 kPa): 1.427 ± 0.014 mPa·s and 1 ± 0.018 mPa·s
- viscosity (318.15 K, 100 kPa): 1.171 ± 0.12 mPa·s
- viscosity (318.15 K, 101 kPa): 1.228 ± 0.026 mPa·s
- viscosity (323.15 K, 100 kPa): 0.995 ± 0.041 mPa·s
- viscosity (323.15 K, 101 kPa): 1.063 ± 0.027 mPa·s and 1.083 ± 0.023 mPa·s
- viscosity (323.15 K, 101.33 kPa): 1.105 ± 0.011 mPa·s and 1.056 ± 0.064 mPa·s

SMILES: CCCCCCCCCBr
- viscosity (297.75 K, 101 kPa): 1.922 ± 0.042 mPa·s
- viscosity (303.55 K, 101 kPa): 1.721 ± 0.037 mPa·s
- viscosity (313.65 K, 101 kPa): 1.458 ± 0.032 mPa·s

SMILES: C1=CCCCC1
- viscosity (303.15 K, 101 kPa): 0.573 ± 0.007 mPa·s

SMILES: c1cscn1
- viscosity (298.15 K, 101 kPa): 1.008 ± 0.027 mPa·s

SMILES: CCCNCCC
- viscosity (298.15 K, 100 kPa): 0.504 ± 0.1 mPa·s and 0.5042 ± 0.15 mPa·s (2×)
- viscosity (298.15 K, 101.33 kPa): 0.503 ± 0.005 mPa·s
- viscosity (303.15 K, 100 kPa): 0.471 ± 0.1 mPa·s and 0.4706 ± 0.15 mPa·s (2×)
- viscosity (308.15 K, 100 kPa): 0.444 ± 0.1 mPa·s and 0.4444 ± 0.15 mPa·s (2×)
- viscosity (308.15 K, 101.33 kPa): 0.444 ± 0.005 mPa·s
- viscosity (318.15 K, 101.33 kPa): 0.386 ± 0.004 mPa·s
